Assay results as given in PubChem BioAssay AID2060502 (Molecular Pharmacology Branch, DTP, NCI, 2025).
Several values for one entry are separate records, joined by “and”; a condition that tells them apart may be missing. Equal entries are not always repeated.

Test system: 885724-159-R-J1-PDC complex spheroid viability
Experiment: Anticancer human tumor 885724-159-R-J1-PDC patient-derived pancreatic adenocarcinoma cell line growth inhibition [GQUAD]
Conditions: for viability, T/C: stronger effect = lower value
Description: DNA G-quadruplex Stabilizer Agents in Combinations in Complex Spheroids
A high-throughput screen of multi-cell type tumor spheroids was designed to identify active combinations of DNA G-quadruplex stabilizer agents and targeted small molecules. Complex spheroids include a stromal component modeled by human endothelial cells (HUVEC) and fibroblasts modeled by human mesenchymal stem cells (MSCs). The concentration ranges selected for each drug and investigational agent were based upon clinically achievable concentrations if the clinical Cmax of the agent was known.
Compounds. The drugs and investigational agents: pidnarulex (CX-5461; NSC782164), APTO-253 (NSC789042), BRACO-19 (NSC847499), peposertib (NSC802822), ceralasertib (NSC780249), elimusertib (NSC800525), camonsertib (NSC841442), AZD-1390 (NSC803789), olaparib (NSC753686), talazoparib (NSC767125), ART-558 (NSC835418), sotorasib (NSC818433), MRTX-1133 (NSC836407), SN-38 (NSC673596), topotecan (NSC609699), etoposide (NSC141540), doxorubicin (NSC123127), gemcitabine (NSC613327), 5-fluorouracil (NSC19893), paclitaxel (NSC125973), vemurafenib (NSC761431), panobinostat (NSC761190), R-306465 (JNJ-16241199; NSC773264), adavosertib (NSC754352), TP-3654 (NSC805149), carboplatin (NSC241240), KSQ-4279 (NSC840948), and staurosporine (NSC755774) were obtained from the National Cancer Institute (NCI) Developmental Therapeutics Program Chemical Repository (34). The FDA-approved anticancer drug set is available from the NCI Developmental Therapeutics Program. […] The stock solutions were prepared in dimethyl sulfoxide (DMSO, Sigma-Aldrich, St. Louis, MO, cat. D2650) at 800-fold the tested concentration and stored at -70 degrees C prior to their use. All drugs and investigational agents were tested over a range starting from a high concentration at or near the clinical Cmax and decreasing in half-log increments. If the clinical Cmax for an agent had not been determined, the highest concentration tested was 10 microM.
2.3 Cell Culture. All cells were maintained in an incubator at 37 degrees C and 5% CO2 with 95% humidity. The PDC lines were cultured according to standard operating procedures established by the NCI PDMR. All PDCs were thawed and cultured in Matrigel-coated flasks prepared with a working solution of 1X Ham's F-12 nutrient mix, without supplementation (Invitrogen, cat. 11765054), 100 U/mL penicillin-streptomycin (Invitrogen, cat. 15140122), and 2.5% Matrigel (Corning Inc., cat. 354248) for the first three passages. The 857933-349-R-J2-PDC line was cultured in 6C/Colon 1B media, which includes advanced DMEM/F-12 (Thermo Fisher Scientific, cat. 12634028), 10 mM HEPES (Thermo Fisher Scientific, cat. 15630080), 1X GlutaMAX supplement (Thermo Fisher Scientific, cat. 35050061), 0.1 mg/mL primocin (InvivoGen, cat. ant-pm-2), 10% defined fetal bovine serum, heat inactivated (HyClone Laboratories Inc., cat. SH30070.03HI), 50% L-WRN conditioned media (ATCC, cat. CRL-3276), 1.25 mM N-Acetyl-L-cysteine (Sigma-Aldrich, cat. A9165), 10 mM nicotinamide (Sigma-Aldrich, cat. N0636), 1X B-27 supplement (Thermo Fisher Scientific, cat. 17504044), 1X N-2 supplement (Thermo Fisher Scientific, cat. 17502048), 10 microM Y-27632 dihydrochloride (Tocris Bioscience, cat. 1254), and 50 ng/mL human EGF recombinant protein (Thermo Fisher Scientific, cat. PHG0311). The 485176-168-R4-J1-PDC line was cultured in Panc media, which includes all 6C/Colon 1B media components plus 100 ng/mL human FGF-10 (Thermo Fisher Scientific, cat. 100-26), 500 nM SB-431542 (Selleckchem, cat. S1067), and gastrin (Tocris, cat. 3006).
[…]

[1] = compound alone, run of 02/20/2024
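Also: spheroids exposed to agents for seven days before readout.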
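For viability, T/C in this document: percent of vehicle control viability where 100% = DMSO wells.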

Row | SMILES | viability, T/C (compound 0.0316 µM) | viability, T/C (compound 0.1 µM) | viability, T/C (compound 0.316 µM) | viability, T/C (compound 1 µM) | viability, T/C (compound 3.16 µM) | viability, T/C (compound 10 µM) | IC50 (curve of compound) | IC50 [1] [nM] | IC50 (compound alone, run of 02/26/2024) [nM] | viability, T/C (compound 0.000999 µM) | viability, T/C (compound 0.00316 µM) | viability, T/C (compound 0.00999 µM) | viability, T/C (compound 0.0999 µM)
1 | COc1cc(C2c3cc4c(cc3C(OC3OC5COC(C)OC5C(O)C3O)C3COC(=O)C23)OCO4)cc(OC)c1O (stereo not drawn) | 91.7% and 104% and 96.9% | 109% and 103% and 96.3% | 97.6% and 98.6% and 86.9% | 88.8% and 96.8% and 89% | 88.5% and 77.7% and 77.3% | 85.7% and 76.8% and 76.7% | > 10000 nM | – | – | – | – | – | –
2 | COc1ccc([C@@H](O)c2cc(-c3ncnc4cc(N5CCOCC5)ccc34)c(F)cc2Cl)nn1 | 97.9% and 93.6% and 102% | 99.9% and 83.8% and 90.8% | 85.5% and 98.2% and 81.1% | 87.8% and 74.6% and 83.2% | 64.8% and 59.1% and 64.2% | 39.9% and 41.8% and 37.1% | 6400 nM and 5560 nM and 5780 nM | – | – | – | – | – | –
3 | COc1cccc2c1C(=O)c1c(O)c3c(c(O)c1C2=O)CC(O)(C(=O)CO)CC3OC1CC(N)C(O)C(C)O1 (stereo not drawn) | 92.3% and 103% and 104% | 92.3% and 81.3% and 102% | 80.3% and 79.5% and 78.9% | 84.3% and 81.4% and 81.6% | 38.4% and 40.1% and 34.5% | 4.02% and 1.94% and 3.83% | 2350 nM and 2390 nM and 2140 nM | – | – | – | – | – | –
4 | COc1ncnc(C2CC2)c1-c1ncc2cnn(Cc3ccc(-c4nc(C(F)(F)F)cn4C(C)C)cc3)c2n1 | 86.6% and 90.5% and 93% | 95.1% and 90.7% and 98.2% | 99% and 97.4% and 93.2% | 99.8% and 90.6% and 97.7% | 90.2% and 96% and 92.5% | 115% and 101% and 113% | > 10000 nM | – | – | – | – | – | –
5 | Cc1[nH]c2ccc(F)cc2c1-c1nc2c3cccnc3c3ncccc3c2[nH]1 | 100% [middle of 12 runs] | – | 92.7% [middle of 12 runs] | 76.8% [middle of 12 runs] | – | 77.7% [middle of 12 runs] | – | > 10000 | > 10000 | – | – | – | –
6 | Cc1[nH]c2ccccc2c1CCNCc1ccc(/C=C/C(=O)NO)cc1 | 108% and 83.9% and 98.7% | – | 47.5% and 47.9% and 42.7% | – | – | – | 298 nM and > 316 nM and 242 nM | – | – | 92.3% and 106% and 93.5% | 91.4% and 98.9% and 103% | 95.6% and 86.5% and 91.7% | 95.6% and 86.5% and 74.5%
7 | Cc1cccc(N(C)C(=O)C2C(O)CCN2c2nc(C)cc(C(F)(F)F)c2C#N)c1 (stereo not drawn) | 98.5% and 93% and 97.9% | 93.8% and 90.7% and 89.8% | 90.9% and 103% and 97% | 92.1% and 105% and 93.5% | 97.1% and 97.4% and 96.8% | 95.8% and 104% and 89.9% | > 10000 nM | – | – | – | – | – | –
8 | Cc1cnc(CNC(=O)c2c(=O)c3ccc(N4CCCN(C)CC4)nc3n3c2sc2ccccc23)cn1 | – | – | 98.5% [middle of 12 runs] | 87.6% [middle of 11 runs] | 80.1% [middle of 12 runs] | 77.7% [middle of 12 runs] | – | > 10000 | – | – | – | – | –
9 | Cn1ncnc1[C@H]1c2n[nH]c(=O)c3cc(F)cc(c23)N[C@@H]1c1ccc(F)cc1 | 92.5% and 97.9% and 93.9% | – | 89.2% and 88% and 94.4% | – | – | – | > 316 nM | – | – | 93.4% and 97.4% and 94.5% | 108% and 94.8% and 82.2% | 87.3% and 97.6% and 97.2% | 88.5% and 97.7% and 103%
10 | Nc1ccn(C2OC(CO)C(O)C2(F)F)c(=O)n1 (stereo not drawn) | 94.4% and 88% and 85.7% | 93.7% and 90.3% and 81.5% | 74.7% and 78.5% and 86.1% | 73.9% and 75.2% and 79.9% | 80.9% and 58.4% and 67% | 69% and 61% and 68.9% | > 10000 nM | – | – | – | – | – | –
11 | O=C(NO)c1cnc(N2CCN(S(=O)(=O)c3ccc4ccccc4c3)CC2)nc1 | 90.6% and 97.6% and 84% | 98.7% and 96.6% and 80% | 94.2% and 85.3% and 72% | 43.3% and 36.8% and 41.2% | 1.62% and 0.69% and 11.8% | 0.25% and 0.51% and 0.27% | 859 nM and 726 nM and 723 nM | – | – | – | – | – | –
12 | O=C(c1cc(Cc2n[nH]c(=O)c3ccccc23)ccc1F)N1CCN(C(=O)C2CC2)CC1 | 99.2% and 89.1% and 108% | 101% and 98.7% and 92.9% | 95.6% and 92.5% and 106% | 87% and 108% and 83.3% | 90.5% and 89.9% and 99.1% | 97.6% and 90.9% and 82.7% | > 10000 nM | – | – | – | – | – | –
13 | O=c1[nH]cc(F)c(=O)[nH]1 | 96.3% and 85.1% and 106% | 100% and 95.1% and 93.2% | 96.9% and 89% and 95.5% | 91.2% and 94% and 92.8% | 94.3% and 94.6% and 93.9% | 88.3% and 87.7% and 92% | > 10000 nM | – | – | – | – | – | –
